These results are taken from ChEMBL document CHEMBL3525964 (Drug Metab Dispos, 2012).

The AUC is the area under the concentration-time curve, a measure of exposure. The Tmax is the time at which the peak concentration occurs.

Data set [1] concerns Homo sapiens. The experiment in a line: AUC (0 to infinity) in human at 15 mg, po administered as single dose by liquid scintillation counting method. Type of data set: ADME, organism-based, Plasma. Set-up: dose 15 mg, time infinity, route oral. The conditions noted are these: in vivo.
The target of data set [2] is T1, Cytochrome P450 2C19 (Homo sapiens, UniProt P33261). Briefly: Fraction metabolized assessed as human recombinant CYP2C19-mediated drug depletion by LC-MS/MS method relative to total normalized intrinsic clearance. In kind it is ADME. The conditions noted are these: recombinant enzyme.
T1 sequence (P33261 whole entry): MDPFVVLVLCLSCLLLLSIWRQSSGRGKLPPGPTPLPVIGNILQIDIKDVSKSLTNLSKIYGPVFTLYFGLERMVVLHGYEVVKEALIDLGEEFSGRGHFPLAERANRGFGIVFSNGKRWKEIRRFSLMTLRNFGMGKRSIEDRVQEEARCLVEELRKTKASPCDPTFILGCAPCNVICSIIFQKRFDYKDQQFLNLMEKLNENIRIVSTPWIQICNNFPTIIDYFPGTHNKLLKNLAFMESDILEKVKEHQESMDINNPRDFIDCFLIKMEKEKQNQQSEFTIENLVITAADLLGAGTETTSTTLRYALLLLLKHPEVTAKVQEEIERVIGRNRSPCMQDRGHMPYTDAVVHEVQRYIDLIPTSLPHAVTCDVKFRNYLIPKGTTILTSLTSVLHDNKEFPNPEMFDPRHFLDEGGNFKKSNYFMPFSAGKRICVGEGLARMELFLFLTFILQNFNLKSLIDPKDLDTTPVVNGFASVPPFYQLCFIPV
Data set [3] deals with Homo sapiens. The experiment in a line: Apparent total body clearance in human at 15 mg, po administered as single dose by liquid scintillation counting method. In kind it is ADME, organism-based. The conditions noted are these: in vivo.
Data set [4] can be described thus: Drug level in feces of human treated with [14C}LY2452473 at 15 mg, po administered as single dose by LC-MS/MS method. In kind it is ADME, organism-based. The conditions noted are these: in vivo.
Data set [5] has as its target T2, Cytochrome P450 2C9 (Homo sapiens, UniProt P11712). Briefly: Fraction metabolized assessed as human recombinant CYP2C9-mediated drug depletion by LC-MS/MS method relative to total normalized intrinsic clearance. Type of data set: ADME. The conditions noted are these: recombinant enzyme.
The target in another data set is T3, Cytochrome P450 2J2 (Homo sapiens, UniProt P51589).
T3 sequence (P51589 whole entry): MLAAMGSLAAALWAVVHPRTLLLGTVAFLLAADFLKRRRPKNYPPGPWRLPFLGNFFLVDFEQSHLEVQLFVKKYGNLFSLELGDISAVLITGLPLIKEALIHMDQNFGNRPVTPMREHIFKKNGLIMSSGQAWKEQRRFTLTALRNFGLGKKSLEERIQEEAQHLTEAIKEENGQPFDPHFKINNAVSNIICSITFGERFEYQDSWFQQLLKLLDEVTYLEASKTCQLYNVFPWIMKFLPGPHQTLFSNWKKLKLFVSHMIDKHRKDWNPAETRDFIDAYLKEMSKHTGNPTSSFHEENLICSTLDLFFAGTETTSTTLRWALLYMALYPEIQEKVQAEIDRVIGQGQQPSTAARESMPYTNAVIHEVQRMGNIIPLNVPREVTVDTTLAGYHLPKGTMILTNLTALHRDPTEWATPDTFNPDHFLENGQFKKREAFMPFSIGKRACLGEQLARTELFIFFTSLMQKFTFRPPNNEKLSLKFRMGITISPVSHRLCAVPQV
Briefly: Normalized intrinsic clearance assessed as human recombinant CYP2J2-mediated drug depletion per pmol protein by LC-MS/MS method. In kind it is ADME. The conditions noted are these: recombinant enzyme.

Data set [6] concerns Homo sapiens. The experiment in a line: Tmax in human at 15 mg, po administered as single dose by liquid scintillation counting method. The conditions noted are these: in vivo. Type of data set: ADME, organism-based.
Data set [7] has as its target T1, Cytochrome P450 2C19. The experiment in a line: Intrinsic clearance assessed as human recombinant CYP2C19-mediated drug depletion per pmol protein by LC-MS/MS method. The conditions noted are these: recombinant enzyme. In kind it is ADME.
For data set [8], the target named is T4, Cytochrome P450 3A4 (Homo sapiens, UniProt P08684). The experiment in a line: Fraction metabolized assessed as human recombinant CYP3A4-mediated drug depletion by LC-MS/MS method relative to total normalized intrinsic clearance. In kind it is ADME. The conditions noted are these: recombinant enzyme.
T4 sequence (P08684 whole entry): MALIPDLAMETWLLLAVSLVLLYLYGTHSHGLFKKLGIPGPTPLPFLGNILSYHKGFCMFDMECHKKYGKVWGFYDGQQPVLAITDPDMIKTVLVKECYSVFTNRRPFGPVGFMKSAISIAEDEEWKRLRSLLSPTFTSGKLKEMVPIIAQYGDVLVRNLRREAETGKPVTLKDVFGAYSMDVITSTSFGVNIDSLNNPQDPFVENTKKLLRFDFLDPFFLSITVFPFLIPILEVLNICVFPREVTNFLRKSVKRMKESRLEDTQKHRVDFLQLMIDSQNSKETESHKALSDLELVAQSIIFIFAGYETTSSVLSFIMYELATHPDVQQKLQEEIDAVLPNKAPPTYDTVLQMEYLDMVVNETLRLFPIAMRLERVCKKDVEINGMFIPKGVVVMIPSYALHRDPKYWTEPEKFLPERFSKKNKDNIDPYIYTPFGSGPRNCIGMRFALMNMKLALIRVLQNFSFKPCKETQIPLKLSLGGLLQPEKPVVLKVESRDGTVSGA
A short description of data set [9]: Total drug excretion in human treated with [14C}LY2452473 at 15 mg, po administered as single dose by HPLC analysis. In kind it is ADME, organism-based. The conditions noted are these: in vivo, read-out: Drug excretion.
In data set [10] the test system is Plasma. Briefly: Drug level in human plasma treated with [14C}LY2452473 at 15 mg, po after 2 hrs administered as single dose by HPLC analysis. In kind it is ADME, organism-based. The conditions noted are these: in vivo.
A further data set has as its target T5, Cytochrome P450 2C8 (Homo sapiens, UniProt P10632).
T5 sequence (P10632 whole entry): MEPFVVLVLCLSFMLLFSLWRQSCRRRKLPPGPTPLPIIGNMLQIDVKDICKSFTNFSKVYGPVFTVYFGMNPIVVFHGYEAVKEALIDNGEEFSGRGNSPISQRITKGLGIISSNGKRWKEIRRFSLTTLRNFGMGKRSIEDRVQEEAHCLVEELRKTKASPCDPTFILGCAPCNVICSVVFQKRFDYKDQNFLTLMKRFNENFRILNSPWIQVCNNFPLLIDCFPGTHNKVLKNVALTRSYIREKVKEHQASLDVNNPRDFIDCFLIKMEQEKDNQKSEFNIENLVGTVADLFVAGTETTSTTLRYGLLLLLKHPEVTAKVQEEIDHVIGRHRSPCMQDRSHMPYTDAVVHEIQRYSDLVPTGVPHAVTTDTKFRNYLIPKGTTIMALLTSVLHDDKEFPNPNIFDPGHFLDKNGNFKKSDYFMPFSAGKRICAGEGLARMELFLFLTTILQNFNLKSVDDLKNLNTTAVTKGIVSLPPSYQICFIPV
Briefly: Drug metabolism assessed as human recombinant CYP2C8-mediated drug depletion by LC-MS/MS method. In kind it is ADME. The conditions noted are these: recombinant enzyme.

In data set [11] the target is T4, Cytochrome P450 3A4. The experiment in a line: Normalized intrinsic clearance assessed as human recombinant CYP3A4-mediated drug depletion per pmol protein by LC-MS/MS method. In kind it is ADME. The conditions noted are these: recombinant enzyme.
Data set [12] deals with Homo sapiens. The experiment in a line: Tlast in human at 15 mg, po administered as single dose by liquid scintillation counting method. Type of data set: ADME, organism-based. The conditions noted are these: in vivo.
The subject of data set [13] is Homo sapiens. The experiment in a line: AUC (0 to last) in human at 15 mg, po administered as single dose by liquid scintillation counting method. Type of data set: ADME, organism-based, Plasma. On the set-up: dose 15 mg, time 0 - last, route oral. The conditions noted are these: in vivo.
Data set [14] relates to Homo sapiens. Briefly: Terminal half life in human at 15 mg, po administered as single dose by liquid scintillation counting method. The conditions noted are these: in vivo. Type of data set: ADME, organism-based.
Data set [15] concerns Plasma. The experiment in a line: Drug level in human plasma treated with [14C}LY2452473 at 15 mg, po after 1 hr administered as single dose by HPLC analysis. In kind it is ADME, organism-based. The conditions noted are these: in vivo.
The target of data set [16] is T4, Cytochrome P450 3A4. Briefly: Intrinsic clearance assessed as human recombinant CYP3A4-mediated drug depletion per pmol protein by LC-MS/MS method. In kind it is ADME. The conditions noted are these: recombinant enzyme.
Data set [17] relates to Homo sapiens. Briefly: Apparent volume of distribution during terminal phase in human at 15 mg, po administered as single dose by liquid scintillation counting method. In kind it is ADME, organism-based. The conditions noted are these: in vivo.
The target in a further data set is Cytochrome P450 2E1 (Homo sapiens, UniProt P05181). The experiment in a line: Drug metabolism assessed as human recombinant CYP2E1-mediated drug depletion by LC-MS/MS method. The conditions noted are these: recombinant enzyme. In kind it is ADME.
Chain of Cytochrome P450 2E1 (P05181 whole entry): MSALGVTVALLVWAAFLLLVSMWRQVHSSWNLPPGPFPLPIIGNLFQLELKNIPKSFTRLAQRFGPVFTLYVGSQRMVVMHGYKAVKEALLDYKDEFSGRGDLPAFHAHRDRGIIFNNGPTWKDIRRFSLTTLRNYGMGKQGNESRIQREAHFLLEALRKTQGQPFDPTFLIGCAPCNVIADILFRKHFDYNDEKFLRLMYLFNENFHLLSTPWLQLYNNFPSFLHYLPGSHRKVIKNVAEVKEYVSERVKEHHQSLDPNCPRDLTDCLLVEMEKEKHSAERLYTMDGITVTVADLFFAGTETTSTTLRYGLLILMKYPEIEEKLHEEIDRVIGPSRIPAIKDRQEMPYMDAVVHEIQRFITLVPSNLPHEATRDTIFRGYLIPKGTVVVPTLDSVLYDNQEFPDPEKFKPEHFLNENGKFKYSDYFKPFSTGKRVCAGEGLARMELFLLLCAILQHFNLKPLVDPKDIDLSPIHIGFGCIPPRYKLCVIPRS
The next data set concerns the target Cytochrome P450 2D6 (Homo sapiens, UniProt P10635). The experiment in a line: Intrinsic clearance assessed as human recombinant CYP2D6-mediated drug depletion per pmol protein by LC-MS/MS method. In kind it is ADME. The conditions noted are these: recombinant enzyme.
The target of data set [18] is T2, Cytochrome P450 2C9. The experiment in a line: Intrinsic clearance assessed as human recombinant CYP2C9-mediated drug depletion per pmol protein by LC-MS/MS method. Type of data set: ADME. The conditions noted are these: recombinant enzyme.
The next data set has as its target T6, Cytochrome P450 2B6 (Homo sapiens, UniProt P20813).
T6 sequence (P20813 whole entry): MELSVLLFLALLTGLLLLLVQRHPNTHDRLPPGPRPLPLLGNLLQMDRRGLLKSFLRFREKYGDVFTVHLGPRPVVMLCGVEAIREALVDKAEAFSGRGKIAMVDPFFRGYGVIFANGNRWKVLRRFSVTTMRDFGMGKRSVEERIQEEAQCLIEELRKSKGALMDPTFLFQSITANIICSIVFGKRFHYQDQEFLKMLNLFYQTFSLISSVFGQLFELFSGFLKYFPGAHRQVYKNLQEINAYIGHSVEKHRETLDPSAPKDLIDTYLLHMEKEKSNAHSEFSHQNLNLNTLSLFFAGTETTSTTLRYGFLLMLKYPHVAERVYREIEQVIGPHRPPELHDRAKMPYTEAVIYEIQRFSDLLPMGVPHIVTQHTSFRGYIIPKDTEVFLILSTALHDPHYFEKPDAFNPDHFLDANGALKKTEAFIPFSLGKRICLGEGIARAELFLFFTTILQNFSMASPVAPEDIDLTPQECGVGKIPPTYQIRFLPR
Briefly: Drug metabolism assessed as human recombinant CYP2B6-mediated drug depletion by LC-MS/MS method. Type of data set: ADME. The conditions noted are these: recombinant enzyme.

In data set [19] the target is T1, Cytochrome P450 2C19. The experiment in a line: Normalized intrinsic clearance assessed as human recombinant CYP2C19-mediated drug depletion per pmol protein by LC-MS/MS method. The conditions noted are these: recombinant enzyme. Type of data set: ADME.

T2 sequence (P11712 whole entry): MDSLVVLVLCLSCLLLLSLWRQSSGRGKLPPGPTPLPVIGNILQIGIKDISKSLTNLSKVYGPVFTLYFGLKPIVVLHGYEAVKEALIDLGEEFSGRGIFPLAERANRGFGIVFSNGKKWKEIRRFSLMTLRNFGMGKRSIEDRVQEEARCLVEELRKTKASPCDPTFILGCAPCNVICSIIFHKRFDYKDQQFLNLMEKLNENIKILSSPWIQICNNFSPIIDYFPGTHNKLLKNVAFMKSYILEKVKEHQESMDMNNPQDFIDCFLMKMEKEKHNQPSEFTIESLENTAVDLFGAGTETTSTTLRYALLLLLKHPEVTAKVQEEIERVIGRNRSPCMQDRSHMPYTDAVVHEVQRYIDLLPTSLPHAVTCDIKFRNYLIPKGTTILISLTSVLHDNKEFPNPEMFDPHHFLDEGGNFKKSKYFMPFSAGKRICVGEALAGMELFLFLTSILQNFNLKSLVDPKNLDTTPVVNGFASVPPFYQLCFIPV
Chain of Cytochrome P450 2D6 (P10635 whole entry): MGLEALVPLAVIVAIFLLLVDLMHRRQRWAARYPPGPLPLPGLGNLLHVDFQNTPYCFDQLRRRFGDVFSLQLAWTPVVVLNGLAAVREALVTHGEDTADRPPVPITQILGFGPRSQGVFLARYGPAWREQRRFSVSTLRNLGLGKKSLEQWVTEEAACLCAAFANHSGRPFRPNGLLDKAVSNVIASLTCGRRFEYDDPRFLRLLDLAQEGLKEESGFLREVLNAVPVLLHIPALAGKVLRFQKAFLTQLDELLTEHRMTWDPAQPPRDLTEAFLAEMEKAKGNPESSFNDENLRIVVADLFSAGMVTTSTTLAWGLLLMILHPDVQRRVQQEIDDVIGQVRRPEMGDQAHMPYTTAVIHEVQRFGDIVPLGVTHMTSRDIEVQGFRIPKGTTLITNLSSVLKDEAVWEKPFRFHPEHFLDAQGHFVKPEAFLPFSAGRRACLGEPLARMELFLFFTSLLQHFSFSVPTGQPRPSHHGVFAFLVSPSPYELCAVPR

On to `CC(C)OC(=O)N[C@H]1Cc2c(n(Cc3ccccn3)c3ccc(C#N)cc23)C1` [LY2452473], for which the AUC in the data set on Homo sapiens [1] turned out to be 1330 ng·h/mL. Further, the Fm was 4.9% on Cytochrome P450 2C19 [2], 8.5% at Cytochrome P450 2C9 [5] and 68% at Cytochrome P450 3A4 [8]. Besides, in the data set on Homo sapiens [3], the CLt/F was 11 L/h. Moreover, the Drug metabolism result was “metabolite_detected” in data set [4], “metabolite_not_detected” on Cytochrome P450 2C8, “metabolite_not_detected” at Cytochrome P450 2E1 and “metabolite_not_detected” on Cytochrome P450 2B6. Besides, the CL was 18 µL/min on Cytochrome P450 2J2; 0.3 µL/min at Cytochrome P450 2C19 [7]; 80 µL/min at Cytochrome P450 3A4 [11]; 0.75 µL/min at Cytochrome P450 3A4 [16]; 0.3 µL/min at Cytochrome P450 2D6; 0.1 µL/min on Cytochrome P450 2C9 [18]. The CL on Cytochrome P450 2C19 [19] amounted to 5.7 µL/min. The Tmax in the data set with Homo sapiens [6] was determined as 2 h. In addition, the dose excreted in [9] is 1.84%. The figures for the Drug uptake with Plasma [10] and with Plasma [15] were 72.93% and 74.5%, respectively. Besides, the Tlast with Homo sapiens [12] stood at 168 h. In the data set with Homo sapiens [13], this compound came in with an AUClast of 1310 ng·h/mL. For the same compound, the “beta t1/2” value in the data set on Homo sapiens [14] was 27 h. Further, the Vz/F with Homo sapiens [17] was 444 L.
